Source: ChEMBL document CHEMBL4840357, “Functionalized Dioxonaphthoimidazoliums: A Redox Cycling Chemotype with Potent Bactericidal Activities against Mycobacterium tuberculosis” (J Med Chem, 2021)
Values after ≈ are worked out from the molar mass of the structure shown. Active and inactive are the calls of the source. The calls are words filed in the database; no cut-off is given here.

Assays:
[1] = test system: Mycobacterium tuberculosis variant bovis BCG; experiment: Induction of ROS generation in Mycobacterium bovis BCG ATCC 35734 at <= 1 times of MIC90 after 90 mins by cellrox-green reagent based assay; type: functional, organism-based
[2] = test system: Mycobacterium tuberculosis variant bovis BCG; experiment: Induction of ROS generation in Mycobacterium bovis BCG ATCC 35734 at 2 times of MIC90 after 90 mins by cellrox-green reagent based assay; type: functional, organism-based
[3] = test system: Mycobacterium tuberculosis variant bovis BCG; experiment: Antimycobacterial activity against Mycobacterium bovis BCG ATCC 35734 incubated for 5 days by broth dilution method; type: functional; conditions: ATCC 35734, 120 h, time 5 day
[4] = test system: Mycobacterium tuberculosis variant bovis BCG; experiment: Induction of oxidative stress Mycobacterium bovis BCG-pfurA-RFP ATCC 35734 assessed as activation of pfurA at 0.5 to 2 times MIC90 after 24 hrs by fluorescence assay; type: functional, organism-based
[5] = test system: Mycobacterium tuberculosis variant bovis BCG; experiment: Bactericidal activity against Mycobacterium bovis BCG ATCC 35734 at 0.5 to 1 times MIC90 incubated for 5 days in presence of thiourea; type: functional, organism-based; conditions: time 5.0 day
[6] = test system: Mycobacterium tuberculosis variant bovis BCG; experiment: Antimycobacterial activity against Mycobacterium bovis BCG ATCC 35734 carrying katG loss-of-function mutant assessed fold reduction in MIC at 1 to 2 times of MIC90 incubated for 5 days under liquid medium; type: functional, organism-based; conditions: time 5.0 day
Cell membrane [7] = experiment: Induction of cell envelope stress in Mycobacterium bovis BCG ATCC 35734 expressing piniBAC RFP at 100 times MIC90 after 24 hrs by fluorescence analysis; type: functional, subcellular; conditions: Mycobacterium tuberculosis variant bovis BCG
[8] = test system: Mycobacterium tuberculosis variant bovis BCG; experiment: Induction of ROS generation in Mycobacterium bovis BCG ATCC 35734 after 90 mins by cellrox-green reagent based assay; type: functional, organism-based
[9] = test system: Mycobacterium tuberculosis variant bovis BCG; experiment: Bactericidal activity against Mycobacterium bovis BCG ATCC 35734 assessed as fold reduction in viability at 40 times MIC90 preincubated for 20 days under oxygen deprived condition followed by compound addition and measured after 5 days; type: functional; conditions: time 5 day
Cell membrane [10] = experiment: Induction of membrane permeabilization in Mycobacterium bovis BCG ATCC 35734 at 4 times MIC after 8 hrs by SYTO9 and PI staining based fluorescence assay; type: functional, subcellular; conditions: Mycobacterium tuberculosis variant bovis BCG
[11] = test system: Mycobacterium tuberculosis variant bovis BCG; experiment: Bactericidal activity against Mycobacterium bovis BCG ATCC 35734 assessed as fold reduction in viability at 4 times MIC measured over 14 days by time-kill assay; type: functional; conditions: time 14 day
[12] = test system: Mycobacterium tuberculosis variant bovis BCG; experiment: Bactericidal activity against Mycobacterium bovis BCG ATCC 35734 assessed as reduction in colony forming unit at 0.5 to 1 times MIC90 incubated for 5 days; type: functional, organism-based; conditions: time 5.0 day
[13] = test system: Mycobacterium tuberculosis variant bovis BCG; experiment: Bactericidal activity against Mycobacterium bovis BCG ATCC 35734 assessed as reduction in colony forming unit at 8 times MIC measured after 21 days by time-kill assay; type: functional, organism-based; conditions: time 21.0 day
[14] = test system: Mycobacterium tuberculosis variant bovis BCG; experiment: Antimycobacterial activity against Mycobacterium bovis BCG ATCC 35734 carrying katG loss-of-function mutant assessed fold reduction in MIC at 1 to 2 times of MIC90 incubated for 5 days; type: functional; conditions: time 5 day
Cell membrane [15] = experiment: Induction of cell membrane depolarization in Mycobacterium bovis BCG ATCC 35734 at 4 times MIC after 8 hrs by DiOC2 dye based flourescence assay; type: functional, subcellular; conditions: Mycobacterium tuberculosis variant bovis BCG
[16] = test system: Mycobacterium tuberculosis variant bovis BCG; experiment: Ratio of MIC for antimycobacterial activity against Mycobacterium bovis BCG ATCC 35734 in absence of glycerol to MIC for antimycobacterial activity against Mycobacterium bovis BCG ATCC 35734 in presence of glycerol; type: functional
[17] = test system: Mycobacterium tuberculosis variant bovis BCG; experiment: Bactericidal activity against Mycobacterium bovis BCG ATCC 35734 at 0.5 to 1 times MIC90 incubated for 5 days in presence of TEMPO; type: functional, organism-based; conditions: time 5.0 day
[18] = test system: Mycobacterium tuberculosis variant bovis BCG; experiment: Induction of ROS generation in Mycobacterium bovis BCG ATCC 35734 at 2 times of MIC90 measured upto 24 hrs by cellrox-green reagent based assay; type: functional, organism-based; conditions: time hrs <=24
[19] = test system: Mycobacterium tuberculosis H37Rv; experiment: Activation of Mycobacterium tuberculosis NDH-2 overexpressed in mc24517 inverted membrane vesicles assessed as increase in NADH oxidation; type: cell membranes; conditions: Membrane vesicle, filed as activator
[20] = test system: Mycobacterium tuberculosis variant bovis BCG; experiment: Induction of oxidative stress Mycobacterium bovis BCG-pfurA-RFP ATCC 35734 assessed as activation of pfurA after 24 hrs by fluorescence assay; type: functional, organism-based
[21] = test system: Mycobacterium tuberculosis variant bovis BCG; experiment: Bactericidal activity against Mycobacterium bovis BCG ATCC 35734 assessed as reduction in colony forming count at 4 times MIC measured over 28 days by time-kill assay; type: functional, organism-based; conditions: time 28.0 day
[22] = test system: Mycobacterium tuberculosis variant bovis BCG; experiment: Antimycobacterial activity against Mycobacterium bovis BCG ATCC 35734 carrying katG loss-of-function mutant assessed fold reduction in MIC at 1 to 2 times of MIC90 incubated for 5 days under solid agar medium; type: functional, organism-based; conditions: time 5.0 day
[23] = test system: Mycobacterium tuberculosis variant bovis BCG; experiment: Bactericidal activity against Mycobacterium bovis BCG ATCC 35734 at 0.5 to 1 times MIC90 incubated for 5 days in presence of N-acetylcysteine; type: functional, organism-based; conditions: time 5.0 day
[24] = test system: Mycobacterium tuberculosis variant bovis BCG; experiment: Bactericidal activity against Mycobacterium bovis BCG ATCC 35734 incubated for 5 days by broth dilution method; type: functional; conditions: ATCC 35734, 120 h, time 5 day, read-out: MBC99.9

| SMILES | Activity [1] | Activity [2] | MIC90 [3] | Activity [4] | Activity [6] | Activity (Cell membrane [7]) | Activity [8] | fold change (FC) [9] | Activity (Cell membrane [10]) | fold change (FC) [11] | fold change (FC) [14] | Activity (Cell membrane [15]) | Ratio [16] | Activity [18] | MIC50 [3] | Activity [20] | Activity [21] | Activity [22] | MBC [24] | also measured |
| --- | --- | --- | --- | --- | --- | --- | --- | --- | --- | --- | --- | --- | --- | --- | --- | --- | --- | --- | --- | --- |
| CCCCCCn1c(C)nc2c1C(=O)c1ccccc1C2=O | inactive | Active | 15 µM (≈ 4.45 µg/mL) | inactive |  |  |  |  |  |  |  |  |  |  |  |  |  |  |  |  |
| CCCCCCCCn1c2c([n+](CCCC)c1C)C(=O)c1ccccc1C2=O.[Br-] |  |  | 0.26 µM |  | Active | inactive | Dose-Dependent Effect | 10 | inactive | 100000 | 2 | inactive | < 2 | Active | 0.15 µM | Dose-Dependent Effect | Active | Active | 0.64 µM | Activity [5]: Active; Activity [12]: Active; Activity [13]: Active; Activity [17]: Active; fold change (FC) [19]: 4.7; Activity [23]: Active |
| CCCCCCCCn1c(C)nc2c1C(=O)c1ccccc1C2=O | inactive | Active | 11 µM (≈ 3.57 µg/mL) | inactive |  |  |  |  |  |  |  |  |  |  |  |  |  |  |  |  |
| CCCCCCCn1c2c([n+](CCCCC)c1C)C(=O)c1ccccc1C2=O.[Br-] |  |  | 0.27 µM |  |  | inactive | Dose-Dependent Effect | 10 | inactive | 100000 | 2 | inactive | < 2 |  | 0.16 µM | Dose-Dependent Effect | Active |  | 0.64 µM |  |
| CCCCCCn1c2c([n+](CCCCCC)c1C)C(=O)c1ccccc1C2=O |  |  | 0.22 µM |  |  |  |  |  |  |  |  |  | < 2 |  | 0.11 µM |  |  |  | 0.64 µM |  |
| CCCCn1c2c([n+](C3CCC4(CCCCC4)CC3)c1C)C(=O)c1ccccc1C2=O.[Br-] |  |  | 0.3 µM |  | inactive | inactive | Dose-Dependent Effect |  |  |  |  |  | < 2 | Active | 0.13 µM | Dose-Dependent Effect |  | Active | 1.3 µM |  |
